Laboratory results taken from US20220363665A1, “QUINOLINE COMPOUNDS FOR THE TREATMENT OF AUTOIMMUNE DISEASE” (Hoffmann-La Roche Inc., priority 2019, published 2022).
Converted amounts (≈) assume the structure as drawn.

Tests used:
[1] = molecular target: T1, human TLR9 (Homo sapiens, UniProt Q9NR96); test: HEK293-Blue-hTLR-9 cells assay (SEAP reporter, ODN2006 stimulation); type: cell-based; conditions: HEK293-Blue-hTLR9 cells, ODN2006, 20 hrs
T1 construct: host or cells: HEK293 (HEK-Blue hTLR9)
T1 sequence (Q9NR96 26-1032): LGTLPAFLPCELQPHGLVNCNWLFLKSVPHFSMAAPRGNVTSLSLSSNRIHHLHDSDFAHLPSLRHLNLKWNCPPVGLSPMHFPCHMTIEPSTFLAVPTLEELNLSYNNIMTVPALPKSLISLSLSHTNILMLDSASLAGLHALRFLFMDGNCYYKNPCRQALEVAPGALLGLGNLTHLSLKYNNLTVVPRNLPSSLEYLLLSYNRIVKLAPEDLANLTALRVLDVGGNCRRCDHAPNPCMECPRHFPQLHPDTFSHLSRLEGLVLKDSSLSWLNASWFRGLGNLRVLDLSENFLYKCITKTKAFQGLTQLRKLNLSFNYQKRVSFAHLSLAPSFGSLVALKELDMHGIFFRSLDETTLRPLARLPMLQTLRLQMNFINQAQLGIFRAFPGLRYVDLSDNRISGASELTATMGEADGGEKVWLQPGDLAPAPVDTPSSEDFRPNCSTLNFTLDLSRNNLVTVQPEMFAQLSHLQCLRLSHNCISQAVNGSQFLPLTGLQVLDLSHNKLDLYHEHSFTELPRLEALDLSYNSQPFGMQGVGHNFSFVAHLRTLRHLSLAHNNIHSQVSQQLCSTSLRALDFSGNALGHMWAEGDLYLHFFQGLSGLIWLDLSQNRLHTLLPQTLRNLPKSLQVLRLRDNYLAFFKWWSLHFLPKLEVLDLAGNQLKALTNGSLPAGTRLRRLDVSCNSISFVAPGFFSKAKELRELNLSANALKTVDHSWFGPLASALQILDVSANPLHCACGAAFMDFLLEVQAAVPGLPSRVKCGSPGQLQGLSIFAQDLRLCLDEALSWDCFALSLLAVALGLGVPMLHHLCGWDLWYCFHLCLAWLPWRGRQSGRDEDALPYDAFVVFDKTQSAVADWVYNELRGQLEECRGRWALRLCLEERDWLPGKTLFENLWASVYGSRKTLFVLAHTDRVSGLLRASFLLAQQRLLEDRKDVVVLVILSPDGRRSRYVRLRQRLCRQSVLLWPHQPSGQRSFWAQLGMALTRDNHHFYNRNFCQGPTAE
Procedure: The following tests were carried out in order to determine the activity of the compounds of formula (I) in HEK293-Blue-hTLR-7/8/9 cells assay.
HEK293-Blue-hTLR-9 Cells Assay:
A stable HEK293-Blue-hTLR-9 cell line was purchased from InvivoGen (Cat. #. hkb-htlr9, San Diego, Calif., USA). These cells were originally designed for studying the stimulation of human TLR9 by monitoring the activation of NF-κB. A SEAP (secreted embryonic alkaline phosphatase) reporter gene was placed under the control of the […] minimal promoter fused to five NF-κB and AP-1-binding sites. The SEAP was induced by activating NF-κB and AP-1 via stimulating HEK-Blue hTLR9 cells with TLR9 ligands. Therefore the reporter expression was declined by TLR9 antagonist under the stimulation of a ligand, such as ODN2006 (Cat. #: tlrl-2006-1, Invivogen, San Diego, Calif., USA), for incubation of 20 hrs. The cell culture supernatant SEAP reporter activity was determined using QUANTI-Blue™ kit (Cat. #: rep-qbl, Invivogen, San Diego, Calif., USA) at a wavelength of 640 nm, a detection medium that turns purple or blue in the presence of alkaline phosphatase.
HEK293-Blue-hTLR9 cells were incubated at a density of […] cells/mL in a volume of 170 μL, in a 96-well plate in Dulbecco's Modified Eagle's medium (DMEM) containing 4.5 g/L glucose, 50 U/mL penicillin, […], […], 2 mM L-glutamine, 10% (v/v) heat-inactivated fetal bovine serum with addition of 20 μL test compound in a serial dilution in the presence of final DMSO at 1% and 10 μL of 20 uM ODN2006 in above DMEM, perform incubation under 37° C. in a CO2 incubator for 20 hrs. Then 20 μL of the supernatant from each well was incubated with 180 μL Quanti-blue substrate solution at 37° C. for 2 hrs and the absorbance was read at 620˜655 nm using a spectrophotometer. The signalling pathway that TLR9 activation leads to downstream NF-κB activation has been widely accepted, and therefore similar reporter assay was modified for evaluating TLR9 antagonist.

[2] = LYSA solubility assay; type: physicochemical; conditions: 0.05 M phosphate buffer, pH 6.5, aqueous buffer, thermodynamic from solid
Procedure: LYSA study is used to determine the aqueous solubility of tested compounds. Samples are prepared in duplicate from 10 mM DMSO stock solution. After evaporation of DMSO with a centrifugal vacuum evaporator, compounds are dissolved in a 0.05 M phosphate buffer (pH 6.5), stirred for one hr and shaken for two hrs. After one night, the solutions are filtered using a microtiter filter plate. Then the filtrate and its 1/10 dilution are analyzed by HPLC-UV. In addition, a four-point calibration curve is prepared from the 10 mM stock solutions and used for the solubility determination of the compounds. The results are in μg/mL. In case the percentage of sample measured in solution after evaporation divided by the calculated maximum of sample amount is bigger than 80%, the solubility is reported as bigger than this value.

Row | SMILES | IC50 [1] [µM] | solubility thermodynamic [2] [µg/mL]
1 | C[C@@H]1CN(c2ccc(C(F)(F)F)c3ncccc23)C[C@H](C(=O)NCC2COCCN2C)O1 (stereo partly drawn) [Example 11, (2R,6R)-6-methyl-N-[(4-methylmorpholin-3-yl)methyl]-4-[8-(trifluoromethyl)-5-quinolyl]morpholine-2-carboxamide] | > 100 | > 740
2 | C[C@@H]1CN(c2ccc(C(F)(F)F)c3ncccc23)C[C@H](C(=O)N2CCC(N)CC2)O1 [Example 12, (4-amino-1-piperidyl)-[(2R,6R)-6-methyl-4-[8-(trifluoromethyl)-5-quinolyl]morpholin-2-yl]methanone] | 6.3 | > 665
3 | C[C@@H]1CN(c2ccc(C(F)(F)F)c3ncccc23)C[C@H](C(=O)NCCN2CCOCC2)O1 [Example 13, (2R,6R)-6-methyl-N-(2-morpholinoethyl)-4-[8-(trifluoromethyl)-5-quinolyl]morpholine-2-carboxamide] | > 100 | > 725
4 | C[C@@H]1CN(c2ccc(C(F)(F)F)c3ncccc23)C[C@H](C(=O)NC2CNCCOC2)O1 (stereo partly drawn) [Example 14, (2R,6R)-6-methyl-N-(1,4-oxazepan-6-yl)-4-[8-(trifluoromethyl)-5-quinolyl]morpholine-2-carboxamide] | 29.4 | > 695
5 | Cc1ccc(N2C[C@@H](C)O[C@@H](C(=O)NC3CCN(C)CC3)C2)c2cccnc12 [Example 16, (2R,6R)-6-methyl-N-(1-methyl-4-piperidyl)-4-(8-methyl-5-quinolyl)morpholine-2-carboxamide] | 39.9 | > 450
6 | Cc1ccc(N2C[C@@H](C)O[C@@H](C(=O)NCC3CN(C)CCO3)C2)c2cccnc12 (stereo partly drawn) [Example 17, (2R,6R)-6-methyl-N-[(4-methylmorpholin-2-yl)methyl]-4-(8-methyl-5-quinolyl)morpholine-2-carboxamide] | > 100 | > 485
7 | C[C@@H]1CN(c2ccc([N+](=O)[O-])c3ncccc23)C[C@H](C(=O)NCC2CN(C)CCO2)O1 (stereo partly drawn) [Example 18, (2R,6R)-6-methyl-N-[(4-methylmorpholin-2-yl)methyl]-4-(8-nitro-5-quinolyl)morpholine-2-carboxamide] | 54.8 | > 530
8 | C[C@@H]1CN(c2ccc([N+](=O)[O-])c3ncccc23)C[C@H](C(=O)N[C@@H]2CNC[C@@H]2F)O1 [Example 19, cis-(2R,6R)-N-[41-fluoropyrrolidin-3-yl]-6-methyl-4-(8-nitro-5-quinolyl)morpholine-2-carboxamide] | 50.7 | > 510
9 | C[C@@H]1CN(c2ccc([N+](=O)[O-])c3ncccc23)C[C@H](C(=O)NC2CCN(C)CC2)O1 [Example 20, (2R,6R)-6-methyl-N-(1-methyl-4-piperidyl)-4-(8-nitro-5-quinolyl)morpholine-2-carboxamide] | 14.9 | > 515
10 | Cc1ccc(N2C[C@@H](C)O[C@@H](C(=O)N[C@@H]3CNC[C@@H]3F)C2)c2cccnc12 [Example 21, cis-(2R,6R)-N-14-fluoropyrrolidin-3-yl1-6-methyl-4-(8-methyl-5-quinolyl)morpholine-2carboxamide] | 38 | > 435
11 | C[C@@H]1CN(c2ccc(Cl)c3ncccc23)C[C@H](C(=O)N[C@H]2CNC[C@H]2F)O1 [Example 22, (2R,6R)-4-(8-chloro-5-quinolyl)-N-[(3S,4R)-4-fluoropyrrolidin-3-yl]-6-methyl-morpholine-2-carboxamide] | 37 | > 455
12 | C[C@H]1C[C@@H](N)CN(c2ccc(Cl)c3ncccc23)C1 [Example 23, (3R,5S)-1-(8-chloro-5-quinolyl)-5-methyl-piperidin-3-amine] | 7 | > 315
13 | C[C@@H]1CN(c2ccc(Cl)c3ncccc23)C[C@H](C(=O)NC2CCN(C)CC2)O1 [Example 24, (2R,6R)-4-(8-chloro-5-quinolyI)-6-methyl-N-(1-methyl-4-piperidyl)morpholine-2-carboxamide] | 23.7 | > 475
14 | C[C@@H]1CN(c2ccc(Cl)c3ncccc23)C[C@H](C(=O)NC2CCCNCC2)O1 (stereo partly drawn) [Example 25, (2R,6R)-N-(azepan-4-yl)-4-(8-chloro-5-quinolyl)-6-methyl-morpholine-2-carboxamide] | 12.4 | > 470
15 | C[C@@H]1CN(c2ccc(Cl)c3ncccc23)C[C@H](C(=O)NCC2CN(C)CCO2)O1 (stereo partly drawn) [Example 26, (2R,6R)-4-(8-chloro-5-quinolyl)-6-methyl-N-[(4-methylmorpholin-2-yl)methyl]morpholine-2-carboxamide] | 46 | > 520
16 | C[C@@H]1CN(c2ccc(C(F)(F)F)c3ncccc23)C[C@H](C(=O)NC[C@@H]2C[C@@H](F)CN2)O1 [Example 27, (2R,6R)-N-[[(2S,4R)-4-fluoropyrrolidin-2-yl]methyl]-6-methyl-4-[8-(trifluoromethyl)-5-quinolyl]morpholine-2-carboxamide] | 28.1 | > 585
17 | C[C@@H]1CN(c2ccc(C(F)(F)F)c3ncccc23)C[C@H](C(=O)NC2CNCC(F)(F)C2)O1 (stereo partly drawn) [Example 28, (2R,6R)-N-(5,5-difluoro-3-piperidyl)-6-methyl-4-[8-(trifluoromethyl)-5-quinolyl]morpholine-2-carboxamide] | > 100 | 480 (≈ 1050 µM)
18 | C[C@@H]1CN(c2ccc(C(F)(F)F)c3ncccc23)C[C@H](C(=O)NCC2CNCC2(F)F)O1 (stereo partly drawn) [Example 29, (2R,6R)-N-[(4,4-difluoropyrrolidin-3-yl)methyl]-6-methyl-4-[8-(trifluoromethyl)-5-quinolyl]morpholine-2-carboxamide] | > 100 | 565 (≈ 1230 µM)
19 | C[C@@H]1CN(c2ccc(C(F)(F)F)c3ncccc23)C[C@H](C(=O)NC[C@@H]2CC(F)(F)CN2)O1 [Example 30] | > 100 | 375 (≈ 818 µM)
20 | C[C@@H]1CN(c2ccc(C(F)(F)F)c3ncccc23)C[C@H](C(=O)NC2C3CCC2CNC3)O1 (stereo partly drawn) [Example 31, (2R,6R)-N-(3-azabicyclo[3.2.1]octan-8-yl)-6-methyl-4-[8-(trifluoromethyl)-5-quinolyl]morpholine-2-carboxamide] | 9.2 | > 597
21 | C[C@@H]1CN(c2ccc(C(F)(F)F)c3ncccc23)C[C@H](C(=O)N2CCC3(CCNCC3)CC2)O1 [Example 32, 3,9-diazaspiro[5.5]undecan-3-yl-[(2R,6R)-6-methyl-4-[8-(trifluoromethyl)-5-quinolyl]morpholin-2-yl]methanone] | 3.7 | > 640
